For 10 molecules, Ki results are on record in ChEMBL document CHEMBL4673247, “Mycophenolic anilides as broad specificity inosine-5'-monophosphate dehydrogenase (IMPDH) inhibitors” (Bioorg Med Chem Lett, 2020).

Structures are written as SMILES. pKi: −log10 of the molar value.

Assay [1] has as its target Inosine-5'-monophosphate dehydrogenase 2 (Homo sapiens, UniProt P12268). Put plainly: Inhibition of human IMPDH2 expressed in Escherichia coli assessed as apparent inhibition constant using NAD as substrate by fluorescence assay. The conditions noted are these: read-out: Ki(app).
In assay [2] the target is T1, Inosine-5'-monophosphate dehydrogenase (Cryptosporidium parvum, UniProt Q8T6T2).
T1 sequence (Q8T6T2 whole entry): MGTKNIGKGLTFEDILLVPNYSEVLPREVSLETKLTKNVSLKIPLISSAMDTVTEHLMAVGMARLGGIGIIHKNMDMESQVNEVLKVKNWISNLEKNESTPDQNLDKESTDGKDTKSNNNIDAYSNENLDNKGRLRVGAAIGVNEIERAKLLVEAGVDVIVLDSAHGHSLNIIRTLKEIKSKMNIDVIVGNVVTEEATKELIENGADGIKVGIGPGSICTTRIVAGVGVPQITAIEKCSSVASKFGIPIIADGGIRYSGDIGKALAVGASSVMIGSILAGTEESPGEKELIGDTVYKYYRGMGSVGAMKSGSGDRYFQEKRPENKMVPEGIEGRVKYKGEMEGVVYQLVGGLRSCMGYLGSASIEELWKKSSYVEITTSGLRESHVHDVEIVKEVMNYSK
Put plainly: Inhibition of Cryptosporidium parvum IMPDH expressed in Escherichia coli assessed as apparent inhibition constant using NAD as substrate by fluorescence assay. The conditions noted are these: read-out: Ki(app).

What is called pKi is −log10 of the Ki, conventionally taken in molar units. For `COc1c(C)c2c(c(O)c1C/C=C(\C)CCC(=O)Nc1ccc(F)cc1)C(=O)OC2`, the pKi in assay [1] is 6.57.

With `COc1c(C)c2c(c(OC)c1C/C=C(\C)CCC(=O)Nc1ccc(Cl)c(C(F)(F)F)c1)C(=O)OC2`, in assay [2], the pKi was 5.77.

As for `COc1c(C)c2c(c(O)c1C/C=C(\C)CCC(=O)N(C)c1ccc(Cl)cc1)C(=O)OC2`, in assay [2], the pKi was 6.06.

For the molecule `COc1c(C)c2c(c(O)c1C/C=C(\C)CCC(=O)Nc1ccc(C#N)cc1)C(=O)OC2`, the values for the pKi in assay [1] and in assay [2] were 6.46 and 6.96, respectively.

For the molecule `COc1c(C)c2c(c(O)c1C/C=C(\C)CCC(=O)Nc1ccc(Cl)c(Cl)c1)C(=O)OC2`, the pKi in assay [1] is 6.47; in assay [2] it was 7.39.

`COc1cc(NC(=O)CC/C(C)=C/Cc2c(O)c3c(c(C)c2OC)COC3=O)ccc1Cl`: the pKi in assay [1] was 6.46; in assay [2], 7.34.

With `COc1c(C)c2c(c(O)c1C/C=C(\C)CCC(=O)Nc1ccc(C(F)(F)F)cc1)C(=O)OC2`, the pKi in assay [1] is 6.40.

Take `COc1c(C)c2c(c(O)c1C/C=C(\C)CCC(=O)Nc1ccc(Cl)cc1)C(=O)OC2`: the figures for the pKi in assay [1] and in assay [2] were 6.89 and 7.38, respectively.

Regarding `COc1c(C)c2c(c(O)c1C/C=C(\C)CCC(=O)Nc1ccc(Cl)c(C(F)(F)F)c1)C(=O)OC2`, the results for the pKi in assay [1] and in assay [2] were 6.64 and 7.80, respectively.

On to `COc1c(C)c2c(c(O)c1CCC(C)CCC(=O)Nc1ccc(Cl)c(C(F)(F)F)c1)C(=O)OC2` (stereo not given), for which the pKi in assay [2] was 7.22.
